12 compounds from PubChem BioAssay (NCI) can be followed below.

Common to all, as to experiment: NCI-60 cell line screen, 48 h
The subject of assay [1] is ACHN renal.
Assay [2] relates to CCRF-CEM leukemia.
Assay [3] concerns EKVX NSCLC.
For assay [4], the system named is HCC-2998 colon.
Assay [5] concerns NCI-H226 lung.
The test system of assay [6] is NCI-H522 lung.
Assay [7] concerns OVCAR-3 ovarian.
For assay [8], the system named is PC-3 prostate.
Assay [9] concerns SK-MEL-5 melanoma.
The subject of assay [10] is SNB-19 CNS.

Values joined by “and” are separate entries in the source; they are usually repeats but may differ in a detail not shown here. Identical values can stand only once.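 Cells were grown in 96-well plates and exposed to each compound for 48 hours at five concentrations; endpoints were interpolated linearly between bracketing concentrations, or set to the highest concentration if not reached. Here, GI50 denotes the concentration required for 50% inhibition of growth. The concentration for full growth arrest is given as TGI.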 Where only a bound is given, the exact number is not on record here.

As for `C=C1C(=O)O[C@H]2[C@H]1CC/C(COC(=O)NCc1cc(OC)cc(OC)c1)=C\CC[C@@]1(C)O[C@@H]21`, the GI50 in assay [1] was 1.29 µM; in assay [2], 0.476 µM; in assay [3], 2.06 µM; in assay [4], 1.94 µM; in assay [5], 2.02 µM; in assay [6], 0.349 µM. Further, the GI50 in assay [7] was 1.01 µM; in assay [8], 2.72 µM; in assay [9] it was 3.48 µM; in assay [10], 5.32 µM. Moreover, the TGI in assay [1] worked out at 2.8 µM; in [2] it was 4.36 µM; in assay [3] it was 6.6 µM; in assay [4] it was 3.51 µM; in [5], 5.49 µM; in assay [6] it was 1.49 µM. The TGI in [7] was determined as 2.31 µM; in [8], 8.67 µM; in [9] it was 12.2 µM; in assay [10], 22.2 µM.
For `C=C(CN(C)C)C(=O)c1ccc(Oc2ccccc2)cc1`, the TGI in assay [1] worked out at 5.08 µM; in [2], 14.6 µM; in assay [3], 44 µM; in [4] it was 32.3 µM; in [5], 34.3 µM; in assay [6] it was 2.72 µM. The TGI in [7] is 13.2 µM; in assay [8], 11.6 µM; in assay [9] it was 19.8 µM; in assay [10], 28.8 µM.
Turning to `CN1CCN(CC(=O)N2c3cccc4cccc(c34)N(C(=O)CN3CCN(C)CC3)C2c2cn(-c3ccccc3)nc2-c2cccc([N+](=O)[O-])c2)CC1`, the GI50 was 2.22 µM in [1]; 1.69 µM in assay [2]; 2.84 µM in assay [3]; 1.54 µM in assay [4]; 1.83 µM in assay [5]; 1.92 µM in [6]. The GI50 in [7] is 1.76 µM; in assay [8], 2.8 µM; in assay [9] it was 1.7 µM; in assay [10], 2.96 µM. Further, the TGI in assay [1] amounted to 5.33 µM; in assay [2] it was 4.45 µM; in assay [3], 11.5 µM; in assay [4], 3.01 µM; in assay [5] it was 4.8 µM; in assay [6], 4.13 µM. Moreover, the TGI is 3.4 µM in [7], 10.4 µM in [8], 3.11 µM in [9] and 11.3 µM in assay [10].
`Cc1nn(C)c2cc(N(C)c3ccnc(Nc4cccc(S(N)(=O)=O)c4)n3)ccc12`: the GI50 is 6.71 µM in assay [1]; 7.3 µM in assay [2]; 6.92 µM in [3]; 15.7 µM in [4]; 5.16 µM in [5]; 3.46 µM in assay [6]. Besides, the GI50 in [7] was 8.19 µM; in assay [8] it was 7.17 µM; in assay [9], 3.62 µM; in assay [10], 13.2 µM. Also, the TGI is above 25 µM in assay [1]; above 25 µM in [2]; above 25 µM in [3]; above 25 µM in [4]; above 21.3 µM in assay [5]; 19.2 µM in assay [6]. For the same compound, the TGI in [7] is above 25 µM; in assay [8], above 25 µM; in [9] it was 8.4 µM; in [10], above 25 µM.
Consider `Nc1ccc(-c2ccc(-c3nc4cc(Cl)c(Cl)cc4[nH]3)cc2)cc1`, for which the GI50 in assay [1] was 0.0833 µM; in assay [2], 0.508 µM; in assay [3], 11.6 µM; in assay [4], 0.1 µM; in assay [5], 4.07 µM; in assay [6] it was 1.03 µM. For the same compound, the GI50 in assay [7] was 0.944 µM; in assay [8], 7.99 µM; in assay [9], 1.42 µM; in assay [10], 23.7 µM. The TGI in assay [1] was above 34.8 µM; in [2] it was above 52.7 µM; in assay [3], above 100 µM; in assay [4], 0.426 µM; in assay [5], above 41.7 µM; in assay [6], above 80.9 µM. For the same compound, the TGI is above 61.2 µM in [8], above 100 µM in assay [9] and above 100 µM in assay [10].
On to `CNC(=O)CN1CCC(Oc2cc3c(Nc4cccc(Cl)c4F)ncnc3cc2OC)CC1`, for which the GI50 is < 0.0224 µM and 0.0561 µM in assay [1]; 24.6 µM and > 5.76 µM in [2]; < 0.0147 µM and 0.0154 µM in [3]; 15.9 µM and > 7.7 µM in assay [4]; 13.9 µM and > 6.23 µM in assay [5]; 0.143 µM and 0.0614 µM in [6]. The GI50 was 3.83 µM and 2.34 µM in [7]; 17.5 µM and > 8.3 µM in [8]; 13.4 µM and 4.49 µM in [9]; 31.5 µM and > 8.29 µM in assay [10]. In addition, the TGI in assay [1] is 25.6 µM and > 10 µM; in assay [2], 81 µM and > 10 µM; in assay [4] it was 34.6 µM and > 10 µM; in assay [5], 42.1 µM and > 10 µM; in assay [6] it was 20.4 µM and > 10 µM; in assay [7], 18.8 µM and > 10 µM. In addition, the TGI was above 69.1 µM in [8]; 26.5 µM and > 10 µM in assay [9]; above 100 µM in assay [10].
As for `COc1ccc(C2CC(=O)c3c(O)c(OC)c(OC)c(OC)c3O2)cc1O` (stereo not drawn), the GI50 is 0.572 µM in assay [1]; 0.115 µM in [2]; 0.53 µM in [3]; 0.999 µM in assay [4]; 14.1 µM in assay [5]; 0.0386 µM in [6]. Also, the GI50 in assay [7] is 0.0627 µM; in assay [8], 0.0642 µM; in [9], 0.219 µM; in [10], 0.0833 µM. Also, the TGI in assay [1] was above 100 µM; in assay [2], above 100 µM; in assay [3] it was above 100 µM; in [4] it was above 100 µM; in assay [5], above 100 µM; in assay [6] it was 0.775 µM. For the same compound, the TGI in assay [7] is 0.749 µM; in assay [8] it was above 100 µM; in assay [9], 6.87 µM; in assay [10], above 100 µM.
`CCN1CCN(c2ccc(Nc3ncc4ccc5ncn(C(C)C)c5c4n3)nc2)CC1`: the GI50 in [1] was 0.0402 µM; in assay [2], 0.145 µM; in assay [3], 0.131 µM; in assay [4] it was 0.161 µM; in assay [5], 0.148 µM; in [6] it was 0.208 µM. The GI50 in assay [7] is 0.192 µM; in assay [8], 0.107 µM; in assay [9], 0.153 µM; in [10], 0.187 µM. The TGI in assay [1] was 10.6 µM; in assay [2] it was 3.63 µM; in [3], 0.563 µM; in assay [4], 1.43 µM; in assay [5], 2.67 µM; in assay [6], 0.809 µM. Also, the TGI is 0.523 µM in assay [7], 1.36 µM in [8], 0.405 µM in assay [9] and 15.5 µM in assay [10].
As for `CC1=CC(=O)c2ccc(C)cc2C1=O`, the TGI in assay [1] was found to be 21 µM; in assay [2], 12.4 µM; in [3] it was 23.9 µM; in [4], 34.7 µM; in assay [5] it was 39.5 µM; in assay [6], 18.5 µM. In addition, the TGI in assay [7] was determined as 29.1 µM; in assay [8] it was 44.1 µM; in [9], 15 µM; in assay [10], 30 µM.
For `Cc1nc2sc(C(=O)Nc3cccc(Br)c3)c(N)c2cc1C(O)c1ccccc1` (stereo not drawn), the GI50 in [1] is 0.768 µM; in [2] it was 0.413 µM; in assay [3], 1.2 µM; in [4] it was 2.4 µM; in assay [5], 2 µM; in assay [6], 0.726 µM. Further, the GI50 in [7] is 0.392 µM; in assay [8] it was 2.89 µM; in assay [9], 0.552 µM; in assay [10], 1.48 µM. Moreover, the TGI in assay [1] was 14.7 µM; in assay [2], above 43.2 µM; in assay [3], 21 µM; in assay [4], 12.1 µM; in assay [5], 24.3 µM; in [6], above 28.4 µM. Besides, the TGI stood at 6.23 µM in assay [7], 31 µM in assay [8], 1.96 µM in assay [9] and 18.9 µM in assay [10].
`Clc1ccc2c(NCCNc3nc(N4CCCC4)nc4ccccc34)ccnc2c1`: the GI50 in assay [1] was 1.64 µM; in assay [2] it was 0.457 µM; in assay [3], 2.08 µM; in assay [4], 1.78 µM; in assay [5] it was 1.95 µM; in assay [6] it was 1.36 µM. Moreover, the GI50 in assay [7] is 0.492 µM; in assay [8], 1.71 µM; in [9] it was 1.64 µM; in assay [10], 1.6 µM. The TGI was 3 µM in assay [1]; above 100 µM in assay [2]; 7.65 µM in assay [3]; 4.37 µM in assay [4]; 4.06 µM in [5]; 3.1 µM in [6]. The TGI in assay [7] amounted to 1.07 µM; in assay [8] it was 8.73 µM; in [9] it was 3.02 µM; in [10], 5.62 µM.
Turning to `COc1ccc2c(c1)C(=O)c1c-2c(NCCN(C)C)nc2ccccc12`, the GI50 in assay [1] was 1.17 µM; in [2], 0.561 µM; in [3], 3.06 µM; in assay [4], 2.52 µM; in [5] it was 16.2 µM; in [6], 6.92 µM. In addition, the GI50 in [7] was 2.29 µM; in [8], 2.93 µM; in assay [9] it was 6.47 µM; in [10], 3.28 µM. In addition, the TGI in [1] turned out to be 6.43 µM; in assay [2], 11.5 µM; in [3], 16.4 µM; in assay [4], 13.4 µM; in assay [5], 32.5 µM; in [6], 20.9 µM. The TGI amounted to 9.34 µM in [7], 14.2 µM in [8], 19.7 µM in assay [9] and 12.7 µM in assay [10].
